Measured values as given in US20260167622A1, “PAN-KRAS DEGRADING AGENT, AND PREPARATION METHOD THEREFOR AND USE THEREOF” (LEADINGTAC PHARMACEUTICAL (SHAOXING) CO., LTD., priority 2022, published 2026).

Assays:
Type in all cases: cell-based
[1] = tested on: KRAS WT human gastric cancer cell MKN1; test: 3D cell proliferation inhibition assay, MKN1; settings: MKN-1, 168 h, 3D culture, 7 days, CTG
Source text: (§1) Test Example 6: 3D Cell Proliferation Inhibition Assay
(§2) The inhibitory effects of the compounds on 3D cell proliferation were investigated on KRAS G12C mutant human non-small cell lung cancer cell NCI-H358, KRAS G12D mutant human lung cancer cell A427, KRAS G12D mutant human gastric cancer cell AGS, KRAS G12D mutant human metastatic pancreatic cancer cell AsPc-1, KRAS G12V mutant human lung squamous carcinoma cell SW900, KRAS G12V mutant human colorectal cancer cell SW620, KRAS G13D mutant human colorectal cancer epithelial cell DLD-1, and KRAS WT human gastric cancer cell MKN1. The specific procedures were as follows:
(§3) 10 μL of each compound solution diluted in a gradient was added to corresponding wells of a 96-well low-adsorption microplate (PerkinElmer), so that the final concentrations of the test compounds in the reaction system were in a range of 10000-0.026 nM. The final concentration of DMSO was 0.2%. Then 90 µL of cells were correspondingly seeded into each well to achieve a cell density of 5×10^2 cells/well (the cell density of SW900 was 5×10^3 cells/well, and the cell density of MKN1 was 1×10^3 cells/well). In addition to test wells for the test compounds, both a DMSO control well and a medium control well were set, with the DMSO control well containing DMSO and cells and the medium well containing only a medium. After the sample loading, the 96-well low-adsorption microplate was incubated in an incubator at 37° C. with […] for 7 days. After 7 days, the microplate was taken out, and 100 μL of CTG reagent (Promega) was added to each well. The plate was incubated at room temperature for 60 m and read on a microplate reader EnVision by the chemiluminescence program. The inhibition rates of the compounds at each concentration were calculated using the formula for the percentage inhibition of cell proliferation: inhibition rate 00=(mean value of DMSO control group−single concentration reading value of compound)/(mean value of DMSO control group−mean value of medium control group)×100. Then non-linear curve fillings for logarithmic concentration-inhibition rate were performed by GraphPad Prism 8, and the IC50 values of the compounds were obtained (Table 6).

[2] = tested on: KRAS G12D mutant human metastatic pancreatic cancer cell AsPc-1; test: 3D cell proliferation inhibition assay, AsPc-1; settings: ASPC1, 168 h, 3D culture, 7 days, CTG
Source text: as §1, §2, §3

[3] = tested on: KRAS G12V mutant human lung squamous carcinoma cell SW900; test: 3D cell proliferation inhibition assay, SW900; settings: SW900, 168 h, 3D culture, 7 days, CTG
Source text: as §1, §2, §3

[4] = target: T1, KRAS G12V protein in SW900 cells (Homo sapiens, UniProt P01116, G12V); test: KRAS degradation assay (Western Blot) in SW900 cells; settings: 24 h
T1 construct: endogenous in cells; host or cells: SW900
Source text: (§4) Test Example 5: KRAS G12C, KRAS G12D, KRAS G12V, KRAS G13D, and KRAS WT (Expanded) Degradation Assays
(§5) The degradation effect of the compounds on KRAS was investigated on KRAS G12C mutant human non-small cell lung cancer cell NCI-H358, KRAS G12D mutant human metastatic pancreatic cancer cell AsPc-1, KRAS G12D mutant human lung cancer cell A427, KRAS G12V mutant human colorectal cancer cell SW620, KRAS G12V mutant human lung cancer cell SW900, KRAS G13D mutant human colorectal cancer epithelial cell DLD-1, and KRAS WT human gastric cancer cell MKN-1. The specific procedures were as follows: 0.95 mL of cells were seeded into each well of a 24-well cell culture plate to achieve a cell density of 5×10^5 cells/well; and the cell plate was incubated in an incubator at 37° C. with 5% CO2 overnight. Then 50 μL of the compound solution after dilution was added to each of the wells with the corresponding cells, so that the final concentration of the compound was in a range of 0.03-3000 nM. The final concentration of DMSO was 0.25%. After the compounds were added, the cell plate was incubated in an incubator at 37° C. with 5% CO2 for 24 h. The culture medium in the 24-well cell culture plate was then removed, and the plate was washed twice with 1×PBS (KeyGEN). 120 μL of RIPA (strong) lysis buffer (Beyotime) (supplemented with 1 mM phenylmethylsulfonyl fluoride, a protease inhibitor mixture (Beyotime), and a protease phosphatase inhibitor mixture (Beyotime)) was added to lyse adherent SW900 cells at the bottom of the cell culture plate. After the plate was left to stand on ice for 30 min, the protein lysate in each well was transferred to a 1.5 mL centrifuge tube and centrifuged at 15000 g for 20 min at 4° C. The cell lysate supernatants after centrifugation were cryopreserved in a refrigerator at −80° C. for later use.
(§6) After the samples of the cell lysate supernatants that had been prepared were thawed from the refrigerator at −80° C., the total protein concentrations of the cell lysates were determined using a BCA protein quantification kit (Tiangen). The total protein concentrations of the samples were then adjusted to 0.5 μg/μL with PBS and 5×SDS-PAGE protein loading buffer (Beyotime), and the samples were incubated in a water bath at 100° C. for 15 min. The samples were then incubated in an ice bath for 5 min and centrifuged at 14000 g for 1 min at 4° C., and the supernatants were mixed well as loading samples for the Western Blot assay. The samples were loaded into wells of a 10% precast gel (KeyGEN) with a loading volume of 10 μL (total protein: 5 μg), a sufficient Tris-MOPS-SDS running buffer (Adamas) was added, and then electrophoresis was performed at a constant voltage of 120 V for 55 min. After the electrophoresis, the proteins on the gel were transferred to PVDF membranes at a constant current of 250 mA for 55 min. After the membrane transfer, the PVDF membranes were incubated in 1× Quick Block blocking buffer (Beyotime)at room temperature for 30 min. After the blocking, the PVDF membranes were separately incubated at 4° C. overnight with the KRAS antibody (Abcam) diluted in a ratio of 1:1000 and the β-actin antibody (Abcam) diluted in a ratio of 1:2000 in 5% BSA as the diluent, and then washed with 1×TBST buffer (2.4 g of Tris, 8.8 g of NaCl, 1.5 mL of Tween 20, with pH adjusted to 7.4, with the volume brought to 1 L) 3 times for 10 min/time. The membranes were incubated with a secondary antibody (Abcam) diluted in 5% BSA at room temperature for 2 h, and then washed with 1×TBST buffer 3 times for 10 min/time. Finally, the membranes were incubated with Clarity Western ECL Substrate (BIO-RAD) for 5 min for luminescence and color development, and a ChemiScope 6200 Touch chemiluminescence imaging system (Clinx) was used for color development and protein mapping. Gray value analysis of the protein maps was performed using the chemiluminescence analysis software (Clinx). […]

[5] = target: T2, KRAS G12V protein in SW620 cells (Homo sapiens, UniProt P01116, G12V); test: KRAS degradation assay (Western Blot) in SW620 cells; settings: for DC50: 24 h; for Dmax: SW-620, 24 h
T2 construct: endogenous in cells; host or cells: SW620
Source text: as §4, §5, §6

[6] = tested on: KRAS G13D mutant human colorectal cancer epithelial cell DLD-1; test: 3D cell proliferation inhibition assay, DLD-1; settings: DLD-1, 168 h, 3D culture, 7 days, CTG
Source text: as §1, §2, §3

[7] = tested on: KRAS G12C mutant human non-small cell lung cancer cell NCI-H358; test: 3D cell proliferation inhibition assay, NCI-H358; settings: NCI-H358, 168 h, 3D culture, 7 days, CTG
Source text: as §1, §2, §3

[8] = tested on: KRAS G12V mutant human colorectal cancer cell SW620; test: 3D cell proliferation inhibition assay, SW620; settings: SW-620, 168 h, 3D culture, 7 days, CTG
Source text: as §1, §2, §3

T2 sequence (P01116 1-188 isoform P01116-2 G12V): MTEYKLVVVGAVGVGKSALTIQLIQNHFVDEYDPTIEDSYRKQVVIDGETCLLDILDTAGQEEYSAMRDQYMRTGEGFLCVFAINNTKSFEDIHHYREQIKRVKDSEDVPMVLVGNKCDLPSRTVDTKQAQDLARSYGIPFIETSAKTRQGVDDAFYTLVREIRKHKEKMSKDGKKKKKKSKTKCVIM
T1 sequence (P01116 1-188 isoform P01116-2 G12V): as above

| SMILES | IC50 [1] [nM] | IC50 [2] [nM] | IC50 [3] [nM] | DC50 [4] [nM] | Dmax [4] [%] | DC50 [5] [nM] | Dmax [5] [%] | IC50 [6] [nM] | IC50 [7] [nM] | IC50 [8] [nM] |
| --- | --- | --- | --- | --- | --- | --- | --- | --- | --- | --- |
| C#Cc1c(F)ccc2cc(O)cc(-c3ncc4c(N5CCCCCC5)nc(OCC5(CN6CCN(CC7CCC8(CC7)CCN(C(=O)c7ccc(C)c(N9CCC(=O)NC9=O)c7)CC8)CC6)CC5)nc4c3F)c12 [Example 37, 1-(5-(9-((4-((1-(((4-(azepan-1-yl)-7-(8-ethynyl-7-fluoro-3-hydroxynaphthalen-1-yl)-8-fluoropyrido[4,3-d]pyrimidin-2-yl)oxy)methyl)cyclopropyl)methyl)piperazin-1-yl)methyl)-3-azaspiro[5.5]undecane-3-carbonyl)-2-methylphenyl)dihydropyrimidine-2,4(1H,3H)-dione] | ≤ 50 | 100 to 500 | ≤ 50 | – | – | – | – | – | – | – |
| C#Cc1cccc2cc(O)cc(-c3ncc4c(N5CCC[C@@](C)(O)C5)nc(OCC5(CN6CCC(CCOCC7CCN(C(=O)c8ccc(OC)c(N9CCC(=O)NC9=O)c8)CC7)CC6)CC5)nc4c3F)c12 [Example 38, (R)-1-(5-(4-((2-(1-((1-(((7-(8-ethynyl-3-hydroxynaphthalen-1-yl)-8-fluoro-4-(3-hydroxy-3-methylpiperidin-1-yl)pyrido[4,3-d]pyrimidin-2-yl)oxy)methyl)cyclopropyl)methyl)piperidin-4-yl)ethoxy)methyl)piperidine-1-carbonyl)-2-methoxyphenyl)dihydropyrimidine-2,4(1H,3H)-dione] | ≤ 50 | 50 to 100 | 100 to 500 | ≤ 50 | 80 to 100 | – | – | – | – | – |
| C#Cc1c(F)ccc2cc(O)cc(-c3ncc4c(N5CCC[C@@](C)(O)C5)nc(OCC5(CN6CCN(CCC#CC7CCN(C(=O)c8ccc(Cl)c(N9CCC(=O)NC9=O)c8)CC7)CC6)CC5)nc4c3F)c12 [Example 43, (R)-1-(2-chloro-5-(4-(4-(4-((1-(((7-(8-ethynyl-7-fluoro-3-hydroxynaphthalen-1-yl)-8-fluoro-4-(3-hydroxy-3-methylpiperidin-1-yl)pyrido[4,3-d]pyrimidin-2-yl)oxy)methyl)cyclopropyl)methyl)piperazin-1-yl)but-1-yn-1-yl)piperidine-1-carbonyl)phenyl)dihydropyrimidine-2,4(1H,3H)-dione] | 50 to 100 | 50 to 100 | ≤ 50 | ≤ 50 | 80 to 100 | – | – | – | – | – |
| C#Cc1c(F)ccc2cc(O)cc(-c3ncc4c(N5CCCC(F)(F)C5)nc(OCC5(CN6CCN(CC7CCC8(CC7)CCN(C(=O)c7ccc(OC)c(N9CCC(=O)NC9=O)c7)CC8)CC6)CC5)nc4c3F)c12 [Example 72, 1-(5-(9-((4-((1-(((4-(3,3-difluoropiperidin-1-yl)-7-(8-ethynyl-7-fluoro-3-hydroxynaphthalen-1-yl)-8-fluoropyrido[4,3-d]pyrimidin-2-yl)oxy)methyl)cyclopropyl)methyl)piperazin-1-yl)methyl)-3-azaspiro[5.5]undecane-3-carbonyl)-2-methoxyphenyl)dihydropyrimidine-2,4(1H,3H)-dione] | 102 | 176 | – | – | – | 11.8 | 95.2 | 54.3 | 32.9 | 22 |
| C#Cc1c(F)ccc2cc(O)cc(-c3ncc4c(N5CCC[C@@](C)(O)C5)nc(OCC(C)CN5CCN(CC6CCC7(CC6)CCN(C(=O)c6ccc(OC)c(N8CCC(=O)NC8=O)c6)CC7)CC5)nc4c3F)c12 (stereo partly drawn) [Example 86, 1-(5-(9-((4-(3-((7-(8-ethynyl-7-fluoro-3-hydroxynaphthalen-1-yl)-8-fluoro-4-((R)-3-hydroxy-3-methylpiperidin-1-yl)pyrido[4,3-d]pyrimidin-2-yl)oxy)-2-methylpropyl)piperazin-1-yl)methyl)-3-azaspiro[5.5]undecane-3-carbonyl)-2-methoxyphenyl)dihydropyrimidine-2,4(1H,3H)-dione] | 5.23 | 21.2 | – | – | – | 14.2 | 89.2 | 9.98 | 6.63 | 7.01 |
| C#Cc1c(F)ccc2cc(O)cc(-c3ncc4c(N5CCC[C@@](C)(O)C5)nc(OC[C@H](C)CN5CCN(CC6CCC7(CC6)CCN(C(=O)c6cc(N8CCC(=O)NC8=O)c(C)cc6F)CC7)CC5)nc4c3F)c12 [Example 162, 1-(5-(9-((4-((R)-3-((7-(8-ethynyl-7-fluoro-3-hydroxynaphthalen-1-yl)-8-fluoro-4-((R)-3-hydroxy-3-methylpiperidin-1-yl)pyrido[4,3-d]pyrimidin-2-yl)oxy)-2-methylpropyl)piperazin-1-yl)methyl)-3-azaspiro[5.5]undecane-3-carbonyl)-4-fluoro-2-methylphenyl)dihydropyrimidine-2,4(1H,3H)-dione] | – | 19.9 | – | – | – | 21.7 | 100 | 12.8 | 3.83 | 4.85 |
